From patent publication US8609639B2, “Stat3 inhibitor having anti-cancer activity and methods” (University of South Florida, priority 2006, dated 2013)
Residues, ends and D or L forms follow the SMILES beside them. *: point of attachment. Cbz = O=C(OCc1ccccc1)*

How the values were obtained:
[1] = system: Stat3-YFP in NIH3T3/v-Src/Stat3-YFP fibroblasts; experiment: Fluorescence and confocal microscopy of Stat3-YFP signal; type: cell-based, mouse; set-up: Stat3-YFP fluorescence signal: dose or concentration left out as unconfirmed; details: for aggregated bodies (aggresomes) of Stat3-YFP: within 5 h of treatment, laser scanning confocal microscopy; for Stat3-YFP fluorescence signal: S3I-M2001, loss evident from 2-5 h, MG132 alone
Method: NIH3T3/vSrc cells were either stably transfected with Stat3-YFP construct (23), or growing in 96-well plates on chamber slides were transiently transfected with the Stat3-YFP plasmid (23) using Lipofectamine 2000 for 24 h according to the manufacturer's protocol (Roche), treated with or without S3I-M2001 for different times, and examined under Nikon Eclipse TE200 fluorescence microscope (Nikon). Images were captured and processed by NIKON NIS element-Basic research software.
Specimens were then washed 5 times with PBS, covered with cover slides with [sequence] mounting medium containing DAPI, and examined immediately under Leica TCS SP5 confocal microscope (Germany) at appropriate wavelengths depending on GFP or YFP. Images were captured and processed using the Leica TCS SP 5 software.

[2] = system: GFP in NIH3T3/v-Src/GFP fibroblasts
[3] = target: T1, Stat3:Stat3 (Mus musculus, UniProt P42227); experiment: STAT DNA-binding assay/EMSA in nuclear extracts (hSIE probe); type: biochemical; details: from EMSA IC50 values
T1 construct: Nuclear extract preparations from v-Src-transformed (NIH3T3/v-Src) or EGF-stimulated NIH3T3/hEGFR fibroblasts, or tumor cell lines were subjected to EMSA; endogenous in cells; host or cells: NIH3T3/v-Src or EGF-stimulated NIH3T3/hEGFR fibroblasts (nuclear extracts)
Method: (§1) Nuclear extract preparation from cells and EMSA were carried out as previously described (9-12, 16, 18, 40). Nuclear extract preparations from v-Src-transformed (NIH3T3/v-Src) or EGF-stimulated NIH3T3/hEGFR fibroblasts, or tumor cell lines were subjected to EMSA. The 32P-labeled oligonucleotide probe used was hSIE (high affinity sis-inducible element from the c-fos gene, m67 variant, as reported by Wagner et al. (42), and that binds Stat1 and Stat3. Except where indicated, inhibitor compound was pre-incubated with the nuclear extract for 30 min at room temperature prior to incubation with radiolabeled hSIE probe. Where necessary, cells were stimulated with recombinant human EGF (rhEGF) for 5-15 min prior to preparation of nuclear extracts. Bands corresponding to DNA-binding activities were scanned and quantified for each concentration of compound and plotted as percent of control (vehicle) against concentration of compound, from which the IC50 values were derived, as previously reported (9, 10, 42).

[4] = system: constitutively-active Stat3; experiment: Constitutive Stat3 Tyr phosphorylation and activation in cells (EMSA, Western blot, immunocytostaining); type: cell-based, mouse, human; details: NIH3T3/v-Src, MDA-MB-231 and MDA-MB-435 cell lines
Method: as §1, with “42). […]” for “42).”

[5] = target: Stat3 activation over that of Stat1 (Mus musculus, UniProt P42227); experiment: rhEGF-induced STAT activation in NIH3T3/hEGFR fibroblasts (EMSA); type: cell-based
Method: as §1

[6] = system: pJak1, pSrc and pErk1/2 (MAPKs); experiment: Western blot of whole-cell lysates for non-Stat3 signalling proteins; type: cell-based, mouse; details: NIH3T3/v-Src fibroblasts
Excerpt: (§2) Whole-cell lysates prepared in boiling SDS sample-loading buffer. i.p. from lysates using monoclonal anti-Stat3 antibody (Cell Signaling Technology), and the probing of nitrocellulose membranes with primary antibodies and detection of horseradish peroxidase-conjugated secondary antibodies by enhanced chemiluminescence (Amersham Biosciences) were done, as previously described (13, 17, 19, 21). The probes used were anti-Stat3 (Santa Cruz), anti-pTyr705Stat3 (Cell Signaling Technology), anti-YFP antibodies (Santa Cruz), anti-Bcl-xL, anti-pSrc, anti-Src, anti-pJak1, anti-Jak1, anti-pEr1/2 and anti-Erk1/2, and b-actin (Cell Signaling Technology).

[7] = system: v-Src-induced Stat3-dependent pLucTKS3 luciferase reporter; experiment: Transient transfection luciferase reporter, Stat3-dependent; type: cell-based, mouse; details: NIH3T3 fibroblasts co-transfected with v-Src
[8] = target: Lck SH2-GST (Homo sapiens, UniProt P06239); experiment: Lck-SH2 domain ELISA assay; type: binding; set-up: dose or concentration left out as unconfirmed; details: S3I-M2001
Method: An ELISA assay for the binding of Lck-SH2 domain with its conjugate phosphopeptide, biotinyl-e-Ac-EPQpYEEIEL-OH, was carried out, as previously described (13, 22). Absorbance reading (450 nm) for the peroxidase reaction was determined with an ELISA plate reader.

[9] = system: Stat3 nuclear localization in EGF-stimulated NIH3T3/hEGFR; experiment: Immunofluorescence/confocal microscopy of Stat3 nuclear localization; type: cell-based, mouse; set-up: dose or concentration left out as unconfirmed; details: for 3 h prior to rhEGF stimulation for 10 min
Method: NIH3T3/hEGFR cells were grown in multi-cell plates and treated with or without S3I-M2001 for 3 h prior to stimulation by rhEGF (10 ng/ml) for 10 min or NIH3T3/vSrc cells were grown in multi-cell plates or chamber slides and cells were fixed with 4% paraformaldehyde for 15 min. Cells were washed 3 times in PBS, permeabilized with 0.2% Triton X for 5 min, and further washed 3-4 times with PBS. Specimens were then blocked in 5% goat serum for 60 min and incubated with Stat3 (Cell Signaling Technology) or Hook2 (Santa Cruz, Santa Cruz, Calif.) antibody at 1:50 dilution at 4° C. overnight. Subsequently, cells were rinsed 4-5 times in PBS, incubated with Alexa fluor 488 rabbit antibody (Molecular probe, Eugene, Oreg.) for (Stat3 detection) or NL637 goat antibody (R&D Systems, Minneapolis, Minn.) for Hook2 for 1-2 h at room temperature in the dark. Specimens were then washed 5 times with PBS, covered with cover slides with [sequence] mounting medium containing DAPI, and examined immediately under Leica TCS SP5 confocal microscope (Germany) at appropriate wavelengths depending on GFP or YFP. Images were captured and processed using the Leica TCS SP 5 software.

[10] = target: T2, Stat3 ubiquitination in NIH3T3/v-Src fibroblasts (Mus musculus, UniProt P42227); experiment: Immunoblotting for ubiquitin of Stat3 immunoprecipitates; type: cell-based; details: up to 24 h treatment
T2 construct: endogenous in cells; host or cells: NIH3T3/v-Src
Excerpt: as §2

[11] = system: MDA-MB-435, MDA-MB-231, Panc-1 cancer cells and NIH3T3/v-Src fibroblasts; experiment: WST-1 cell viability assay, cells harbouring constitutively-active Stat3; type: cell-based, human, mouse; details: WST-1 and trypan blue exclusion/cell counting
Method: (§3) In some cases, cells were first transfected with the plasmid for the Stat3 SH2 (ST3-SH2) domain or mock-transfected (pcDNA3 empty vector) for 24 h or untransfected prior to treatment with S3I-M2001 for an additional 24-48 h. Cells were then detached and analyzed by Annexin V binding (BD Biosciences, San Diego) according to the manufacturer's protocol and Flow Cytometry to quantify the percent apoptosis.

[12] = system: NIH3T3/v-Src and Panc-1 cells; experiment: Soft-agar colony formation assay, cells with active Stat3; type: cell-based, mouse, human; details: treated every three days
Method: (§4) Colony formation assays were carried out in six-well dishes and colonies were enumerated as previously described (19). Treatment with S3I-M2001 was initiated 1 day after seeding cells in soft-agar suspension by adding […] of medium with or without compound, and repeated every three days, until large colonies were evident.

[13] = system: NIH3T3/v-Ras; experiment: Soft-agar colony formation assay, v-Ras transformed fibroblasts; type: cell-based, mouse; details: NIH3T3/v-Ras lacking constitutively-active Stat3
Method: as §4

[14] = system: NIH3T3/v-Src, MDA-MB-231 and MDA-MB-435 cells; experiment: TUNEL and Annexin V binding/Flow Cytometry apoptosis, cells harbouring aberrant Stat3; type: cell-based, mouse, human; set-up: apoptosis (Annexin V) after transfection with Stat3 SH2 domain: dose or concentration left out as unconfirmed
Method: as §3

[15] = system: normal NIH3T3, MCF-10A, MDA-MB-453, HUVEC, HAEC and HL-60 cells; experiment: TUNEL and Annexin V apoptosis, cells without aberrant Stat3; type: cell-based, mouse, human; details: cells that do not contain aberrant Stat3
Method: as §3

[16] = system: Bcl-xL expression in NIH3T3/v-Src and MDA-MB-435 cells; experiment: Western blot analysis for Bcl-xL; type: cell-based, mouse, human
Excerpt: as §2

[17] = system: NIH3T3/v-Src; experiment: Cell migration assay (Bio-Coat chambers); type: cell-based, mouse; set-up: dose or concentration left out as unconfirmed; details: S3I-M2001, 24 h
Method: (§5) Cell migration experiments were carried out using Bio-Coat migration chambers (Becton Dickinson, Franklin, N.J.) of 24-well companion plates with cell culture inserts containing […] pore size filters, according to the manufacturer's protocol. […] After 24-h incubation (37° C., 5% CO2), the filters were removed and the upper surface was wiped with a cotton-tipped applicator to remove non-migratory cells. Cells that had migrated through the filter pores and attached to bottom surface of the filter were fixed and stained. The membranes were mounted on glass slides and cells from 10 random microscopic fields (×400 magnification) were counted. Cell invasion experiments were performed using same Bio-Coat invasion chambers (Becton Dickenson), as already described, except that here, filters ([…]) were used coated with the basement membrane matrigel. Percent inhibition is calculated as 100−y, where y equals residual number of stained cells in the treated/total number in the control ×100.

[18] = system: MDA-MB-231; experiment: Cell migration assay (Bio-Coat chambers); type: cell-based, human; set-up: dose or concentration left out as unconfirmed; details: S3I-M2001, 24 h
Method: as §5

[19] = system: Panc-1; experiment: Cell migration assay (Bio-Coat chambers); type: cell-based, human; set-up: dose or concentration left out as unconfirmed; details: S3I-M2001, 24 h
Method: as §5

[20] = system: NIH3T3/v-Src; experiment: Matrigel invasion assay; type: cell-based, mouse; set-up: dose or concentration left out as unconfirmed; details: matrigel-coated filters, 24 h
Method: as §5

[21] = system: MDA-MB-231; experiment: Matrigel invasion assay; type: cell-based, human; set-up: dose or concentration left out as unconfirmed; details: matrigel-coated filters, 24 h
Method: as §5

[22] = system: Panc-1; experiment: Matrigel invasion assay; type: cell-based, human; set-up: dose or concentration left out as unconfirmed; details: matrigel-coated filters, 24 h
Method: as §5

[23] = system: MDA-MB-231 tumor xenografts; experiment: Human breast tumor xenografts in athymic nude mice; type: in vivo, mouse
Method: Six-week-old female athymic nude mice were purchased from Harlan and maintained in the institutional animal facilities approved by the American Association for Accreditation of Laboratory Animal Care. Athymic nude mice were injected subcutaneously in the left flank area with 5×10^6 human breast cancer MDA-MB-231 cells in […] of PBS. After 5 to 10 days, tumors of a diameter of 3 mm were established. Animals were grouped so that the mean tumor sizes in all groups were nearly identical, given S3I-[…] i.v. at 5, 10 and 20 mg/kg every 2 or every 3 days for 26 days and monitored every 2 or 3 days, and tumor sizes were measured with calipers. Tumor volume was calculated according to the formula V=0.52×a2×b, where a, smallest superficial diameter, b, largest superficial diameter.

[24] = target: T3, Stat3:Stat3 dimer (Homo sapiens, UniProt P40763); experiment: Dissociation-reassociation analysis with EMSA (pooled lysates of activated Stat1 and Stat3); type: biochemical; details: pooled lysates of activated Stat1 and Stat3, increasing concentration
T3 construct: made in house; host or cells: Sf-9 insect cells (baculovirus; co-infected with Jak1 and c-Src)
Excerpt: Infect of Sf-9 cells with Stat1, Stat3, Jak1, and c-Src recombinant baculoviruses and preparation of the cell lysates containing activated Stat1 or Stat3 have been previously described (9, 21).
In the previously reported dissociation-reassociation analysis (9, 10, 20), two independently-prepared cell lysate, one containing only activated Stat3:Stat3 dimer and the other containing only activated Stat1:Stat1 dimer (21), were mixed together and pre-treated with or without increasing concentration of S3I-M2001 and subjected to STAT DNA-binding assay with EMSA analysis.
The dissociation-reassociation analysis with EMSA analysis was performed, as previously done (10, 20).

Stat3 activation over that of Stat1, sequence (P42227 whole entry): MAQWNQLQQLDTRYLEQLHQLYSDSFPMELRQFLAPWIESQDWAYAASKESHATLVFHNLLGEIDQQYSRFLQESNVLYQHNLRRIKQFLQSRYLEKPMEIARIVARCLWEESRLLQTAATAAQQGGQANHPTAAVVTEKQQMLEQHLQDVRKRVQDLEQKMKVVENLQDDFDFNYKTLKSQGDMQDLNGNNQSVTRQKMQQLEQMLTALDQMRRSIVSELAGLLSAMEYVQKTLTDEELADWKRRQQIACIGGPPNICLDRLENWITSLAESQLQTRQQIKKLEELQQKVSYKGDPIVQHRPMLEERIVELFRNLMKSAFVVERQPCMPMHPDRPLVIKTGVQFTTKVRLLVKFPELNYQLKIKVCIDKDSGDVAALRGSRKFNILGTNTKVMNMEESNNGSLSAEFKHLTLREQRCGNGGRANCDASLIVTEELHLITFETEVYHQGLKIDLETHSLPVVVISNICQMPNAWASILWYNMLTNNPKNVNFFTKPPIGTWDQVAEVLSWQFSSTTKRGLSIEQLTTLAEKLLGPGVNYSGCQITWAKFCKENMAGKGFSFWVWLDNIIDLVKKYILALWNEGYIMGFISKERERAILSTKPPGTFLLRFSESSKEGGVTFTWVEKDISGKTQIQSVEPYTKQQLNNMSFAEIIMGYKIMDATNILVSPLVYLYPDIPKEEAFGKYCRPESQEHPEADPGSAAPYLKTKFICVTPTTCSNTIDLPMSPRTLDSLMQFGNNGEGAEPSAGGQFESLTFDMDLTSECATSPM
T2 sequence (P42227 whole entry): as above
T1 sequence (P42227 2-770 limits assumed): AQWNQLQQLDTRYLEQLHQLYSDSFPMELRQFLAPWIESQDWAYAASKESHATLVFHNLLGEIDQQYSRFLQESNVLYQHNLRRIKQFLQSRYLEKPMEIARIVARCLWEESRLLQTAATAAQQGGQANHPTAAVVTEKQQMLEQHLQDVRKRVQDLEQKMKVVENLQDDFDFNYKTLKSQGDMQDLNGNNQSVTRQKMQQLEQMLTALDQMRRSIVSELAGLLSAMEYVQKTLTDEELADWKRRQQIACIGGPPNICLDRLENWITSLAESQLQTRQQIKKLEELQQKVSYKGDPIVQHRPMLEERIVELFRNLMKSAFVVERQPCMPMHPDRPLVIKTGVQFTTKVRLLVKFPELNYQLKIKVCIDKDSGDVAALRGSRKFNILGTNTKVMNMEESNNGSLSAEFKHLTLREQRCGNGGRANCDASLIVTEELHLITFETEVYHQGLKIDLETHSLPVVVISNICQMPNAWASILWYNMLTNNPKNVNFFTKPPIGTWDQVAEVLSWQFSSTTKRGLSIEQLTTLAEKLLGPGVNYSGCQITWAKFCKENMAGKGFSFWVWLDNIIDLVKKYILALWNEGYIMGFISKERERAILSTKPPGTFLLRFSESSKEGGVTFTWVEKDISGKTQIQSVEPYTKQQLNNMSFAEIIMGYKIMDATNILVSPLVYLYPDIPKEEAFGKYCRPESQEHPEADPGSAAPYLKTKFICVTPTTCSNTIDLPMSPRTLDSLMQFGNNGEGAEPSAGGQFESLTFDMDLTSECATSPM
Lck SH2-GST, sequence (P06239 127-224 limits assumed): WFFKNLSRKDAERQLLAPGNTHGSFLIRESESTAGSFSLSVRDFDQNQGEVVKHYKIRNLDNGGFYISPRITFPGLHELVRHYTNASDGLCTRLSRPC
T3 sequence (P40763 whole entry): as the sequence (P42227 whole entry) above, with D760E counted along it

N.N.[Cl][Pt][Cl] [Cisplatin, reference compound]
aggregated bodies (aggresomes) of Stat3-YFP [1]: no such effect

CC(C)C[C@@H](C=O)NC(=O)[C@H](CC(C)C)NC(=O)[C@H](CC(C)C)NC(=O)OCc1ccccc1 [MG132, reference compound] (Cbz-Leu-Leu-Leu-aldehyde)
Stat3-YFP fluorescence signal [1]: no appreciable effect | GFP signal change [2]: no evidence of GFP signal change

CCCCCCNC(=O)c1nc(-c2cccc3ccccc23)oc1Cc1ccc(OP(=O)(O)O)cc1 [S3I-M2001]
preferential inhibition of Stat3 activity over Stat1 [3]: 2 fold | constitutive Stat3 Tyr phosphorylation and activation [4]: inhibited constitutive Stat3 Tyr phosphorylation and activation | rhEGF-induced Stat3 activation versus Stat1 [5]: preferentially inhibited | pJak1, pSrc and pErk1/2 levels [6]: not repressed | Stat3-dependent pLucTKS3 luciferase reporter activity [7]: inhibited | binding of Lck SH2-GST to phosphopeptide biotinyl-e-Ac-EPQpYEEIEL-OH [8]: minimal effect | EGF-induced nuclear staining of Stat3 [9]: significantly attenuated | Stat3-YFP fluorescence signal [1]: time-dependent decrease | aggregated bodies (aggresomes) of Stat3-YFP [1]: accompanied by aggregated bodies | level of Stat3 ubiquitination [10]: strong and time-dependent increase | selective loss of viability of cells with constitutively-active Stat3 versus cells lacking it [11]: greater than 2 fold | growth in soft-agar [12]: blocked growth in soft-agar | growth in soft-agar [13]: no appreciable effects | apoptosis (Annexin V) after transfection with Stat3 SH2 domain ([14]; 3T3/v-Src/ST3-SH2 versus mock-transfected or untransfected, 24 h): diminished apoptosis | apoptosis (TUNEL, Annexin V) ([14]; NIH3T3/v-Src, MDA-MB-231, MDA-MB-435, 48 h (TUNEL)): strong apoptosis | apoptosis (TUNEL, Annexin V) [15]: minimal effect | Bcl-xL expression [16]: diminished Bcl-xL expression | inhibition of migration [17]: 76% | inhibition of migration [18]: 37% | inhibition of migration [19]: 21% | inhibition of invasion [20]: 28% | inhibition of invasion [21]: 48% | inhibition of invasion [22]: 38% | viability of animals ([23]; highest dose applied, 20 mg kg-1 i.v.): remained viable | growth of tumors (tumor volume) ([23]; i.v. 5, 10 and 20 mg kg-1 every 2 or 3 days for 26 days): strongly inhibited growth of tumors | Stat3 activity and pTyr levels in residual tumor tissue ([23]; tumors T1 and T2, 3 days after last 5 mg kg-1 injection, EMSA and Western blot): abrogated Stat3 activity and pTyr levels | Stat3:Stat3 DNA-binding activity in pooled lysates [24]: concentration-dependent diminution | GFP signal change [2]: no evidence of GFP signal change
